Experimental data: ChEMBL document CHEMBL1151280, “ent-Kaurane Diterpenoids from Isodon albopilosus” (J Nat Prod, 2005)

test system: HepG2; experiment: Cytotoxicity against human HepG2 cells after 24 hrs by Alamar blue assay; assay type: functional, cell-based; conditions: not given

Compound | Activity
C[C@@H]1[C@@H]2C(=O)C[C@H]3[C@]4(C)CCC[C@](C)(CO)[C@H]4C[C@@H](O)[C@@]3([C@@H]1O)[C@@H]2O | Not toxic
C=C1C[C@@]23[C@H](O)C[C@@H]4[C@@](C)(CO)CCC[C@@]4(C)[C@@H]2C[C@H](O)[C@@H]1[C@H]3O | Not toxic
C=C1[C@@H](OC(C)=O)[C@@]23[C@H](O)C[C@@H]4[C@@](C)(CO)CCC[C@@]4(C)[C@@H]2CC[C@@H]1[C@H]3O | Not toxic
C=C1[C@H]2[C@@H](O)[C@@]3([C@H](O)C[C@@H]4[C@@](C)(CO)CCC[C@@]4(C)[C@@H]3C[C@@H]2O)[C@@H]1OC(C)=O | Not toxic
C=C1[C@H]2[C@@H](O)[C@@]3([C@H](O)C[C@H]4[C@@](C)(CCC[C@]4(C)C=O)[C@@H]3C[C@@H]2O)[C@@H]1OC(C)=O | Not toxic
C=C1C(=O)[C@@]23[C@H](O)C[C@H]4[C@@](C)(CCC[C@]4(C)C(=O)O)[C@@H]2CC[C@@H]1[C@H]3O | Not toxic
C[C@H]1C(=O)[C@@]23[C@H](O)C[C@@H]4[C@@](C)(CO[C@@H]5O[C@H](CO)[C@@H](O)[C@H](O)[C@H]5O)CCC[C@@]4(C)[C@@H]2C[C@H](O)[C@@H]1[C@H]3O | Not toxic
CC(=O)OC[C@@]1(C)CCC[C@]2(C)[C@@H]1C[C@@H](O)[C@@]13C(=O)[C@H](CO)[C@@H]([C@H]1O)[C@@H](O)C[C@@H]23 | Not toxic
C=C1C(=O)[C@@]23[C@H](O)C[C@H]4[C@@](C)(CCC[C@]4(C)C(=O)O)[C@@H]2C[C@H](O)[C@@H]1[C@H]3O | Not toxic
C[C@H]1C(=O)[C@@]23[C@H](O)C[C@H]4[C@@](C)(CCC[C@]4(C)C(=O)O)[C@@H]2C[C@H](O)[C@@H]1[C@H]3O | Not toxic

same assay, conditions: HepG2, 24 h

Compound | IC50
C=C1C(=O)[C@@]23[C@H](O)C[C@@H]4[C@@](C)(CO)CCC[C@@]4(C)[C@@H]2CC[C@@H]1[C@H]3O [EXCISANIN C] | 13.2 µM
C=C1C(=O)[C@@]23[C@H](O)C[C@H]4[C@@](C)(CCC[C@]4(C)C=O)[C@@H]2C[C@H](O)[C@@H]1[C@H]3O [MACROCALYXIN C] | 30.8 µM
C=C1C(=O)[C@@]23[C@H](O)C[C@H]4[C@@](C)(CCC[C@]4(C)C=O)[C@@H]2CC[C@@H]1[C@H]3O [ALBOPILOSIN H] | 13.3 µM
C=C1C(=O)[C@@]23[C@H](O)C[C@@H]4[C@@](C)(COC(C)=O)CCC[C@@]4(C)[C@@H]2C[C@H](O)[C@@H]1[C@H]3O [ALBOPILOSIN A] | 24.9 µM
C=C1C(=O)[C@@]23[C@H](O)C[C@@H]4[C@@](C)(CO)CCC[C@@]4(C)[C@@H]2C[C@H](O)[C@@H]1[C@H]3O [RABDOKUNMIN C] | 42.1 µM
